In ChEMBL document CHEMBL1795302, “Synthesis and discovery of novel hexacyclic cage compounds as inhibitors of acetylcholinesterase” (Bioorg Med Chem Lett, 2011):

What follows are compounds tested against Acetylcholinesterase (Electrophorus electricus, UniProt O42275) (assay: Inhibition of electric eel AChE by modified Ellman method).
Chain of Acetylcholinesterase (O42275 whole entry): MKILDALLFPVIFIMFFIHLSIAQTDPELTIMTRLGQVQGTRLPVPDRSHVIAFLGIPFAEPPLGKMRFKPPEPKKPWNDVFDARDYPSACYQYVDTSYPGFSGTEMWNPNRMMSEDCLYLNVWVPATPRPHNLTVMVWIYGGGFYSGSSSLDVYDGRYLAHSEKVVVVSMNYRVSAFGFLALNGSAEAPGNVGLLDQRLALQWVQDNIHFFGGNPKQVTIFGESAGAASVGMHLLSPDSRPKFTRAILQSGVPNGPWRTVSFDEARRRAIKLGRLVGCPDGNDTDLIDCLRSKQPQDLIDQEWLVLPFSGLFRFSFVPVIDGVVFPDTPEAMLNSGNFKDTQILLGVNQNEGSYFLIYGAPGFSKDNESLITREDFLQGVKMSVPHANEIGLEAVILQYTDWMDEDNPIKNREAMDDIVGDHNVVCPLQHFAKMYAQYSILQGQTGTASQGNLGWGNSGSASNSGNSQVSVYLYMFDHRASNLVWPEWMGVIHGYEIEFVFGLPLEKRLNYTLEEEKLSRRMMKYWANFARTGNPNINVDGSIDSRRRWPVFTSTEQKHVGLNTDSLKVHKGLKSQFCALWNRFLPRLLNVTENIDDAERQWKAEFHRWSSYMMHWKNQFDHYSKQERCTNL

Compared with O=C1/C(=C/c2ccccc2)CN2CC13[C@@H](c1ccccc1)C1CCCN1C31C(=O)c3ccccc3C21O (stereo not given in full), Cc1ccccc1/C=C1\CN2CC3(C1=O)[C@@H](c1ccccc1C)C1CCCN1C31C(=O)c3ccccc3C21O (stereo not given in full) is 5.7-fold lower in IC50: 6.86 µM for the first, 1.2 µM for the second. The second is the more potent here.

Going from O=C1/C(=C/c2ccccc2Cl)CN2CC13[C@@H](c1ccccc1Cl)C1CCCN1C31C(=O)c3ccccc3C21O (stereo not given in full) to O=C1/C(=C/c2ccc(Cl)cc2Cl)CN2CC13[C@@H](c1ccc(Cl)cc1Cl)C1CCCN1C31C(=O)c3ccccc3C21O (stereo not given in full), the IC50 rises from 5.12 µM to 12.2 µM (2.4-fold).

First: O=C1/C(=C/c2cccc([N+](=O)[O-])c2)CN2CC13[C@@H](c1cccc([N+](=O)[O-])c1)C1CCCN1C31C(=O)c3ccccc3C21O (stereo not given in full)
Second: Cc1ccc(/C=C2\CN3CC4(C2=O)[C@@H](c2ccc(C)cc2)C2CCCN2C42C(=O)c4ccccc4C32O)cc1 (stereo not given in full)
The IC50 of the first is 8.6-fold higher: 6.2 µM for the first, 0.72 µM for the second. The second is the more potent here.

O=C1/C(=C/c2ccc(Cl)cc2)CN2CC13[C@@H](c1ccc(Cl)cc1)C1CCCN1C31C(=O)c3ccccc3C21O (stereo not given in full) and O=C1/C(=C/c2ccc(Br)cc2)CN2CC13[C@@H](c1ccc(Br)cc1)C1CCCN1C31C(=O)c3ccccc3C21O (stereo not given in full) are within 1.5-fold of each other in IC50: 11.2 µM for the first, 9.26 µM for the second.

Going from O=C1/C(=C/c2ccc(F)cc2)CN2CC13[C@@H](c1ccc(F)cc1)C1CCCN1C31C(=O)c3ccccc3C21O (stereo not given in full) to O=C1/C(=C/c2cccc3ccccc23)CN2CC13[C@@H](c1cccc4ccccc14)C1CCCN1C31C(=O)c3ccccc3C21O (stereo not given in full), the IC50 falls from 11.3 µM to 2.12 µM (5.3-fold). The second is the more potent here.
